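Following 48 hours of exposure in 96-well plates, responses at five concentrations were used to interpolate endpoints linearly. Definition used: TGI = concentration required for complete inhibition of growth.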
Experiments:
Experiment in all cases: growth of human tumour cells (NCI), 48 h
SR leukemia = test system: SR leukemia
DU-145 prostate = test system: DU-145 prostate
CAKI-1 renal = test system: CAKI-1 renal
NCI-H522 lung = test system: NCI-H522 lung
DMS 273 small cell lung = test system: DMS 273 small cell lung
LOX IMVI melanoma = test system: LOX IMVI melanoma
MDA-MB-231 breast = test system: MDA-MB-231 breast
SF-295 CNS = test system: SF-295 CNS
NCI-H460 lung = test system: NCI-H460 lung
CCRF-CEM leukemia = test system: CCRF-CEM leukemia
SNB-19 CNS = test system: SNB-19 CNS
MDA-MB-435 = test system: MDA-MB-435
A498 renal = test system: A498 renal
UACC-62 melanoma = test system: UACC-62 melanoma
SK-MEL-2 melanoma = test system: SK-MEL-2 melanoma
OVCAR-8 ovarian = test system: OVCAR-8 ovarian
ACHN renal = test system: ACHN renal
IGROV1 ovarian = test system: IGROV1 ovarian
EKVX NSCLC = test system: EKVX NSCLC
HT29 colon = test system: HT29 colon
SNB-78 CNS = test system: SNB-78 CNS
HCT-116 colon = test system: HCT-116 colon
SK-MEL-5 melanoma = test system: SK-MEL-5 melanoma
M14 melanoma = test system: M14 melanoma
KM20L2 colon = test system: KM20L2 colon
RPMI-8226 leukemia = test system: RPMI-8226 leukemia
OVCAR-5 ovarian = test system: OVCAR-5 ovarian
SN12C renal = test system: SN12C renal
786-0 renal = test system: 786-0 renal
T-47D breast = test system: T-47D breast
SF-539 CNS = test system: SF-539 CNS
NCI-H226 lung = test system: NCI-H226 lung
U251 CNS = test system: U251 CNS
UO-31 renal = test system: UO-31 renal
NCI/ADR-RES ovarian = test system: NCI/ADR-RES ovarian
HL-60(TB) leukemia = test system: HL-60(TB) leukemia
BT-549 breast = test system: BT-549 breast
SW-620 colon = test system: SW-620 colon
HOP-62 NSCLC = test system: HOP-62 NSCLC
MCF7 breast = test system: MCF7 breast
XF 498 CNS = test system: XF 498 CNS
MDA-N = test system: MDA-N
MALME-3M melanoma = test system: MALME-3M melanoma
A549 NSCLC = test system: A549 NSCLC
SK-MEL-28 melanoma = test system: SK-MEL-28 melanoma
PC-3 prostate = test system: PC-3 prostate
RXF 393 renal = test system: RXF 393 renal
HS 578T breast = test system: HS 578T breast
HCC-2998 colon = test system: HCC-2998 colon
MOLT-4 leukemia = test system: MOLT-4 leukemia
UACC-257 melanoma = test system: UACC-257 melanoma
NCI-H23 lung = test system: NCI-H23 lung
K-562 leukemia = test system: K-562 leukemia
HCT-15 colon = test system: HCT-15 colon
LXFL 529 NSCLC = test system: LXFL 529 NSCLC
OVCAR-3 ovarian = test system: OVCAR-3 ovarian
HOP-92 NSCLC = test system: HOP-92 NSCLC
KM12 colon = test system: KM12 colon
SK-OV-3 ovarian = test system: SK-OV-3 ovarian
SF-268 CNS = test system: SF-268 CNS
SNB-75 CNS = test system: SNB-75 CNS
TK-10 renal = test system: TK-10 renal
COLO 205 colon = test system: COLO 205 colon
OVCAR-4 ovarian = test system: OVCAR-4 ovarian
DMS 114 small cell lung = test system: DMS 114 small cell lung
M19-MEL melanoma = test system: M19-MEL melanoma
DLD-1 colon = test system: DLD-1 colon

## CN(C)C(=S)NC(=S)Nc1ccc2ccccc2c1
SR leukemia
  TGI: 35.8 µM
DU-145 prostate
  TGI: 77.9 µM
CAKI-1 renal
  TGI: 65.3 µM
NCI-H522 lung
  TGI: 32 µM
DMS 273 small cell lung
  TGI: 14.1 µM
LOX IMVI melanoma
  TGI: 19.6 µM
MDA-MB-231 breast
  TGI: 48.1 µM
SF-295 CNS
  TGI: 18.8 µM
NCI-H460 lung
  TGI: 22.4 µM
CCRF-CEM leukemia
  TGI: 10.5 µM
SNB-19 CNS
  TGI: > 72.1 µM
MDA-MB-435
  TGI: 68 µM
A498 renal
  TGI: 48.3 µM
UACC-62 melanoma
  TGI: 26.9 µM
SK-MEL-2 melanoma
  TGI: 41.6 µM
OVCAR-8 ovarian
  TGI: 68.8 µM
ACHN renal
  TGI: > 83 µM
IGROV1 ovarian
  TGI: 34.6 µM
EKVX NSCLC
  TGI: 51.1 µM
HT29 colon
  TGI: 25.3 µM
SNB-78 CNS
  TGI: 77.5 µM
HCT-116 colon
  TGI: 27 µM
SK-MEL-5 melanoma
  TGI: 25 µM
M14 melanoma
  TGI: 50.4 µM
KM20L2 colon
  TGI: 23.7 µM
RPMI-8226 leukemia
  TGI: 45 µM
OVCAR-5 ovarian
  TGI: 60.1 µM
SN12C renal
  TGI: 31.9 µM
786-0 renal
  TGI: > 64.8 µM
T-47D breast
  TGI: 46 µM
SF-539 CNS
  TGI: 31.6 µM
NCI-H226 lung
  TGI: 31.5 µM
U251 CNS
  TGI: > 46.9 µM
UO-31 renal
  TGI: 48 µM
NCI/ADR-RES ovarian
  TGI: 59.6 µM
HL-60(TB) leukemia
  TGI: 51.7 µM
BT-549 breast
  TGI: 53.9 µM
SW-620 colon
  TGI: > 75.2 µM
HOP-62 NSCLC
  TGI: 46.2 µM
MCF7 breast
  TGI: 37.1 µM
XF 498 CNS
  TGI: 33.3 µM
MDA-N
  TGI: 42.1 µM
MALME-3M melanoma
  TGI: 35.1 µM
A549 NSCLC
  TGI: > 31.5 µM
SK-MEL-28 melanoma
  TGI: 40.3 µM
PC-3 prostate
  TGI: 38.3 µM
RXF 393 renal
  TGI: 65.8 µM
HS 578T breast
  TGI: 97.8 µM
HCC-2998 colon
  TGI: 36.6 µM
MOLT-4 leukemia
  TGI: 34.4 µM
UACC-257 melanoma
  TGI: 24.2 µM
NCI-H23 lung
  TGI: 43.9 µM
K-562 leukemia
  TGI: 23.3 µM
HCT-15 colon
  TGI: 59.9 µM
LXFL 529 NSCLC
  TGI: 21.9 µM
OVCAR-3 ovarian
  TGI: 57.8 µM
HOP-92 NSCLC
  TGI: 48.1 µM
KM12 colon
  TGI: 37.6 µM
SK-OV-3 ovarian
  TGI: 55.3 µM
SF-268 CNS
  TGI: 47.3 µM
SNB-75 CNS
  TGI: 62.5 µM
TK-10 renal
  TGI: > 89.4 µM
COLO 205 colon
  TGI: 39 µM
OVCAR-4 ovarian
  TGI: > 100 µM

## N#C/C(=C/c1cccc2ccccc12)C(=O)c1ccccc1
SR leukemia
  TGI: 88.3 µM
CAKI-1 renal
  TGI: > 100 µM
NCI-H522 lung
  TGI: 54.6 µM
LOX IMVI melanoma
  TGI: 39.3 µM
SF-295 CNS
  TGI: 44.4 µM
NCI-H460 lung
  TGI: 78.2 µM
CCRF-CEM leukemia
  TGI: 39 µM
SNB-19 CNS
  TGI: 41.6 µM
A498 renal
  TGI: 55.3 µM
UACC-62 melanoma
  TGI: 38.4 µM
SK-MEL-2 melanoma
  TGI: 41.6 µM
OVCAR-8 ovarian
  TGI: > 100 µM
ACHN renal
  TGI: > 10 µM
IGROV1 ovarian
  TGI: 54.8 µM
EKVX NSCLC
  TGI: > 10 µM
HT29 colon
  TGI: > 100 µM
SNB-78 CNS
  TGI: > 100 µM
HCT-116 colon
  TGI: 34.4 µM
SK-MEL-5 melanoma
  TGI: > 10 µM
M14 melanoma
  TGI: 30.6 µM
KM20L2 colon
  TGI: 37.1 µM
RPMI-8226 leukemia
  TGI: 69.6 µM
OVCAR-5 ovarian
  TGI: 50.1 µM
SN12C renal
  TGI: 85.6 µM
786-0 renal
  TGI: 30.3 µM
SF-539 CNS
  TGI: 34.9 µM
NCI-H226 lung
  TGI: 47.9 µM
U251 CNS
  TGI: 37.9 µM
UO-31 renal
  TGI: 35.9 µM
HL-60(TB) leukemia
  TGI: 46.9 µM
SW-620 colon
  TGI: 32 µM
HOP-62 NSCLC
  TGI: 41.1 µM
XF 498 CNS
  TGI: 39.3 µM
MALME-3M melanoma
  TGI: 47.6 µM
A549 NSCLC
  TGI: > 10 µM
SK-MEL-28 melanoma
  TGI: 30 µM
DMS 114 small cell lung
  TGI: > 100 µM
HCC-2998 colon
  TGI: 49.2 µM
MOLT-4 leukemia
  TGI: 38.2 µM
UACC-257 melanoma
  TGI: > 10 µM
NCI-H23 lung
  TGI: 32.2 µM
K-562 leukemia
  TGI: > 10 µM
M19-MEL melanoma
  TGI: 86.6 µM
HCT-15 colon
  TGI: 39.3 µM
OVCAR-3 ovarian
  TGI: > 100 µM
KM12 colon
  TGI: 43.2 µM
SK-OV-3 ovarian
  TGI: > 100 µM
TK-10 renal
  TGI: > 100 µM
OVCAR-4 ovarian
  TGI: > 100 µM

## CCc1n[nH]c(=S)n1/N=C/c1ccc(-c2ccc([N+](=O)[O-])cc2)o1
SR leukemia
  TGI: > 100 µM
CAKI-1 renal
  TGI: > 100 µM
NCI-H522 lung
  TGI: > 100 µM
DMS 273 small cell lung
  TGI: > 100 µM
LOX IMVI melanoma
  TGI: > 100 µM
SF-295 CNS
  TGI: > 100 µM
NCI-H460 lung
  TGI: > 100 µM
SNB-19 CNS
  TGI: > 100 µM
UACC-62 melanoma
  TGI: > 100 µM
SK-MEL-2 melanoma
  TGI: > 100 µM
OVCAR-8 ovarian
  TGI: > 100 µM
ACHN renal
  TGI: > 100 µM
IGROV1 ovarian
  TGI: > 100 µM
HT29 colon
  TGI: > 100 µM
SNB-78 CNS
  TGI: > 100 µM
HCT-116 colon
  TGI: > 100 µM
M14 melanoma
  TGI: > 100 µM
KM20L2 colon
  TGI: > 100 µM
RPMI-8226 leukemia
  TGI: > 100 µM
OVCAR-5 ovarian
  TGI: > 100 µM
SN12C renal
  TGI: > 100 µM
786-0 renal
  TGI: > 100 µM
SF-539 CNS
  TGI: > 100 µM
NCI-H226 lung
  TGI: > 100 µM
U251 CNS
  TGI: > 100 µM
UO-31 renal
  TGI: > 100 µM
HL-60(TB) leukemia
  TGI: > 100 µM
SW-620 colon
  TGI: > 100 µM
HOP-62 NSCLC
  TGI: > 100 µM
XF 498 CNS
  TGI: > 100 µM
MALME-3M melanoma
  TGI: > 100 µM
A549 NSCLC
  TGI: > 100 µM
SK-MEL-28 melanoma
  TGI: > 100 µM
DLD-1 colon
  TGI: > 100 µM
HCC-2998 colon
  TGI: > 100 µM
MOLT-4 leukemia
  TGI: > 100 µM
UACC-257 melanoma
  TGI: > 100 µM
NCI-H23 lung
  TGI: > 100 µM
K-562 leukemia
  TGI: > 100 µM
M19-MEL melanoma
  TGI: > 100 µM
HCT-15 colon
  TGI: > 100 µM
LXFL 529 NSCLC
  TGI: > 100 µM
OVCAR-3 ovarian
  TGI: > 100 µM
HOP-92 NSCLC
  TGI: > 100 µM
KM12 colon
  TGI: > 100 µM
SK-OV-3 ovarian
  TGI: > 100 µM
SF-268 CNS
  TGI: > 100 µM
SNB-75 CNS
  TGI: > 100 µM
TK-10 renal
  TGI: > 100 µM
COLO 205 colon
  TGI: > 100 µM
OVCAR-4 ovarian
  TGI: > 100 µM

Reference: PubChem BioAssay (NCI)
